Assay results published in patent US9493444B2 (Merck Patent GmbH, priority 2012, dated 2016).

tested on: Wnt pathway (TCF-dependent transcription in HEK293 luciferase reporter cell line with ER-DSH construct); experiment: Cellular assay for Wnt pathway activity (luciferase reporter); type: cell-based; conditions: Homo sapiens; Wnt pathway inhibition, HEK293 luciferase reporter cells (ER-DSH, TCF promoter), 24 hours incubation, estrogen-induced
Protocol: 1. Cellular Assay for Wnt Pathway Activity
Compounds were tested for their Wnt pathway inhibitory activities using a luciferase reporter cell based assay. A HEK293 luciferase reporter cell line was used which contained an Estrogen Receptor-Dishevelled (ER-DSH) construct and a T-Cell Factor (TCF) dependent gene promoter luciferase construct.
Compounds, in concentrations from 30 μM down to 1 nM, were incubated for 24 hours on the cells, which were induced for TCF-dependent transcription by the addition of estrogen (10). Luciferase activities were determined using the ONE GLO Luciferase Assay System (Promega) and the ENVISION microplate reader (Perkin Elmer). For analysis, the obtained data were normalized against the untreated vehicle control and fitted for determination of the IC50 values using the Assay Explorer software (Accelrys).

| Structure (SMILES) | IC50 |
| --- | --- |
| CC(=O)N(C)CCN(C)c1cncc(Oc2ccc3[nH]ccc3c2)n1 [Compound 106, N-(2-{[6-(1H-Indol-5-yloxy)-pyrazin-2-yl]-methyl-amino}-ethyl)-N-methyl-acetamide] | 0.2 to 1 µM |
| CC(=O)N(C)CCN(C)c1cncc(Oc2ccc3c(c2)C(=O)CC3)n1 [Compound 108, N-Methyl-N-(2-{methyl-[6-(3-oxo-indan-5-yloxy)-pyrazin-2-yl]-amino}-ethyl)-acetamide] | 1 to 10 µM |
| COc1ccc(Oc2cncc(N(C)CCN(C)C(C)=O)n2)c(F)c1 [Compound 109, N-(2-{[6-(2-Fluoro-4-methoxy-phenoxy)-pyrazin-2-yl]-methyl-amino}-ethyl)-N-methyl-acetamide] | 0.2 to 1 µM |
| CC(=O)N(C)CCN(C)c1cncc(Oc2ccc(Cl)cc2F)n1 [Compound 110, N-(2-{[6-(4-Chloro-2-fluoro-phenoxy)-pyrazin-2-yl]-methyl-amino}-ethyl)-N-methyl-acetamide] | 0.2 to 1 µM |
| CC(=O)N(C)CCN(C)c1cncc(Oc2ccc(Br)c(C)c2)n1 [Compound 111, N-(2-{[6-(4-Bromo-3-methyl-phenoxy)-pyrazin-2-yl]-methyl-amino}-ethyl)-N-methyl-acetamide] | 0.2 to 1 µM |
| CC(=O)N(C)CCN(C)c1cncc(Oc2ccc3ccncc3c2)n1 [Compound 112, N-(2-{[6-(Isoquinolin-7-yloxy)-pyrazin-2-yl]-methyl-amino}-ethyl)-N-methyl-acetamide] | < 0.2 µM |
| CC(=O)N(C)CCN(C)c1cncc(Oc2c(F)cc(Br)cc2F)n1 [Compound 113, N-(2-{[6-(4-Bromo-2,6-difluoro-phenoxy)-pyrazin-2-yl]-methyl-amino}-ethyl)-N-methyl-acetamide] | < 0.2 µM |
| CC(=O)N(C)CCN(C)c1cncc(Oc2cccc(N(C)C)c2)n1 [Compound 114, N-(2-{[6-(3-Dimethyl-amino-phenoxy)-pyrazin-2-yl]-methyl-amino}-ethyl)-N-methyl-acetamide] | 1 to 10 µM |
| CCOC(=O)c1ccc(Oc2cncc(N(C)CCN(C)C(C)=O)n2)cc1 [Compound 115, 4-(6-{[2-(Acetyl-methyl-amino)-ethyl]-methyl-amino}-pyrazin-2-yloxy)-benzoic acid ethyl ester] | 0.2 to 1 µM |
| CN(CCN1CCCCC1=O)c1cncc(Oc2ccc(F)cc2)n1 [Compound 116, 1-(2-{[6-(4-Fluoro-phenoxy)-pyrazin-2-yl]-methyl-amino}-ethyl)-piperidin-2-one] | < 0.2 µM |
| CC(=O)N(C)CCN(C)c1cncc(Oc2ccc(CC(N)=O)cc2)n1 [Compound 117, 2-[4-(6-{[2-(Acetyl-methyl-amino)-ethyl]-methyl-amino}-pyrazin-2-yloxy)-phenyl]-acetamide] | 0.2 to 1 µM |
| CC(=O)N(C)CCN(C)c1cncc(Oc2ccc(-n3ccnc3)cc2)n1 [Compound 118] | < 0.2 µM |
| CC(=O)NCCSc1cncc(Oc2ccc(F)cc2)n1 [Compound 119, N-{2-[6-(4-Fluoro-phenoxy)-pyrazin-2-ylsulfanyl]-ethyl}-acetamide] | 1 to 10 µM |
| CNCCN(C)c1cncc(Oc2ccc(-c3cc(C(F)(F)F)ccn3)cc2)n1 [Compound 120, N,N′-Dimethyl-N-{6-[4-(4-trifluoro-methyl-pyridin-2-yl)-phenoxy]-pyrazin-2-yl}-ethane-1,2-diamine] | 1 to 10 µM |
| CC(=O)N(C)CCN(C)c1cncc(Oc2ccc(C(F)(F)F)cc2)n1 [Compound 121, N-Methyl-N-(2-{methyl-[6-(4-trifluoro-methyl-phenoxy)-pyrazin-2-yl]-amino}-ethyl)-acetamide] | 0.2 to 1 µM |
| CC(=O)N(C)CCN(C)c1cncc(Oc2ccc(C#N)cc2)n1 [Compound 122, N-(2-{[6-(4-Cyano-phenoxy)-pyrazin-2-yl]-methyl-amino}-ethyl)-N-methyl-acetamide] | < 0.2 µM |
| CCOc1ccc(Oc2cncc(N(C)CCN(C)C(C)=O)n2)cc1 [Compound 123, N-(2-{[6-(4-Ethoxy-phenoxy)-pyrazin-2-yl]-methyl-amino}-ethyl)-N-methyl-acetamide] | < 0.2 µM |
| CC(=O)N(C)CCN(C)c1cncc(Oc2ccc(-c3nc4cc(C#N)ccc4[nH]3)cc2)n1 [Compound 124, N-[2-({6-[4-(5-Cyano-1H-benzo-imidazo-2-yl)-phenoxy]-pyrazin-2-yl}-methyl-amino)-ethyl]-N-methyl-acetamide] | 0.2 to 1 µM |
| CC(=O)c1ccc(Oc2cncc(N(C)CCN(C)C(C)=O)n2)cc1 [Compound 125, N-(2-{[6-(4-Acetyl-phenoxy)-pyrazin-2-yl]-methyl-amino}-ethyl)-N-methyl-acetamide] | 0.2 to 1 µM |

| Structure (SMILES) | IC50 |
| --- | --- |
| CC(=O)N(C)CCN(C)c1cncc(Oc2ccc(C(=O)N3CCCC(c4cccn4C)=N3)cc2)n1 [Compound 126, N-Methyl-N-{2-[methyl-(6-{4-[3-(1-methyl-1H-pyrrol-2-yl)-5,6-dihydro-4H-pyridazine-1-carbonyl]-phenoxy}-pyrazin-2-yl)-amino]-ethyl} acetamide] | 1 to 10 µM |
| CC(=O)N(C)CCN(C)c1cncc(Oc2ccc(Cn3nc(-c4cc(F)cc(F)c4)ccc3=O)cc2)n1 [Compound 127, N-{2-[(6-{4-[3-(3,5-Difluoro-phenyl)-6-oxo-6H-pyridazin-1-ylmethyl]-phenoxy}-pyrazin-2-yl)-methyl-amino]-ethyl}-N-methyl-acetamide] | 1 to 10 µM |
| CC(=O)N(C)CCN(C)c1cncc(Oc2ccc(-c3cc(C(F)(F)F)ccn3)cc2)n1 [Compound 128, N-Methyl-N-[2-(methyl-{6-[4-(4-trifluoro-methyl-pyridin-2-yl)-phenoxy]-pyrazin-2-yl}-amino)-ethyl]-acetamide] | 1 to 10 µM |
| CC(=O)N(C)CCN(C)c1cncc(Sc2ccc(F)cc2)n1 [Compound 129, N-(2-{[6-(4-Fluoro-phenyl-sulfanyl)-pyrazin-2-yl]-methyl-amino}-ethyl)-N-methyl-acetamide] | 0.2 to 1 µM |
| CC(=O)N(C)CCN(C)c1cncc(Sc2ccc(Br)cc2)n1 [Compound 130, N-(2-{[6-(4-Bromo-phenyl-sulfanyl)-pyrazin-2-yl]-methyl-amino}-ethyl)-N-methyl-acetamide] | 1 to 10 µM |
| CC(=O)N(C)CCN(C)c1cncc(Oc2ccc(OC(F)(F)F)cc2)n1 [Compound 131, N-Methyl-N-(2-{methyl-[6-(4-trifluoro-methoxy)-pyrazin-2-yl]-amino}-ethyl)-acetamide] | < 0.2 µM |
| CC(=O)N(C)CCN(C)c1cncc(Oc2ccc(N3CCN(c4ccncc4)CC3)cc2)n1 [Compound 132, N-Methyl-N-[2-(methyl-{6-[4-(4-pyridin-4-yl-piperazin-1-yl)-phenoxy]-pyrazin-2-yl}-amino)-ethyl]-acetamide] | < 0.2 µM |
| CC(=O)N(C)CCN(C)c1cncc(Oc2ccc(-c3ccccn3)cc2)n1 [Compound 133, N-Methyl-N-(2-{methyl-[6-(4-pyridin-2-yl-phenoxy)-pyrazin-2-yl]-amino}-ethyl)-acetamide] | < 0.2 µM |
| CNCCN(C)c1cncc(Oc2ccc(-c3cccc(N4CCN(C)CC4)n3)cc2)n1 [Compound 134, N,N′-Dimethyl-N-(6-{4-[6-(4-methyl-piperazin-1-yl)-pyridin-2-yl]-phenoxy}-pyrazin-2-yl)-ethane-1,2-diamine] | 1 to 10 µM |
| CCC1Sc2ccccc2NC1c1ccc(Oc2cncc(N(C)CCN(C)C(C)=O)n2)cc1 (centres unmarked) [Compound 135, N-[2-({6-[4-(2-Ethyl-3,4-dihydro-2H-benzo[1,4]thiazin-3-yl)-phenoxy]-pyrazin-2-yl}-methyl-amino)-ethyl]-N-methyl-acetamide] | 1 to 10 µM |
| CC(=O)N(C)CCSc1cncc(Oc2ccc(F)cc2)n1 [Compound 136, N-{2-[6-(4-Fluoro-phenoxy)-pyrazin-2-ylsulfanyl]-ethyl}-N-methyl-acetamide] | < 0.2 µM |
| CCOC(=O)Cc1ccc(Oc2cncc(N(C)CCN(C)C(C)=O)n2)cc1 [Compound 137, [4-(6-{[2-(Acetyl-methyl-amino)-ethyl]-methyl-amino}-pyrazin-2-yloxy)-phenyl]-acetic acid ethyl ester] | < 0.2 µM |
| CCOC(=O)C(C)c1ccc(Oc2cncc(N(C)CCN(C)C(C)=O)n2)cc1 (centres unmarked) [Compound 138, 2-[4-(6-{[2-(Acetyl-methyl-amino)-ethyl]-methyl-amino}-pyrazin-2-yloxy)-phenyl]-propionic acid ethyl ester] | 0.2 to 1 µM |
| CCC(C)(C)c1ccc(Oc2cncc(N(C)CCN(C)C(C)=O)n2)cc1 [Compound 139, N-[2-({6-[4-(1,1-Dimethyl-propyl)-phenoxy]-pyrazin-2-yl}-methyl-amino)-ethyl]-N-methyl-acetamide] | 0.2 to 1 µM |
| COc1ccc(Oc2cncc(N(C)CCN(C)C(C)=O)n2)cc1OC [Compound 140, N-(2-{[6-(3,4-Dimethoxy-phenoxy)-pyrazin-2-yl]-methyl-amino}-ethyl)-N-methyl-acetamide] | 1 to 10 µM |
| COC(=O)CCc1ccc(Oc2cncc(N(C)CCN(C)C(C)=O)n2)cc1 [Compound 141, 3-[4-(6-{[2-(Acetyl-methyl-amino)-ethyl]-methyl-amino}-pyrazin-2-yloxy)-phenyl]-propionic acid methyl ester] | 1 to 10 µM |
| CC(=O)N(C)CCN(C)c1cncc(Oc2ccc(CC#N)cc2)n1 [Compound 142, N-(2-{[6-(4-Cyano-methyl-phenoxy)-pyrazin-2-yl]-methyl-amino}-ethyl)-N-methyl-acetamide] | < 0.2 µM |
| CC(=O)N(C)CCN(C)c1cncc(Oc2ccc(C(N)=O)cc2)n1 [Compound 143, 4-(6-{[2-(Acetyl-methyl-amino)-ethyl]-methyl-amino}-pyrazin-2-yloxy)-benzamide] | 0.2 to 1 µM |
| CC(=O)N(C)CCN(C)c1cncc(Oc2ccc(-c3ccncc3C#N)cc2)n1 [Compound 144, N-[2-({6-[4-(3-Cyano-pyridin-4-yl)-phenoxy]-pyrazin-2-yl}-methyl-amino)-ethyl]-N-methyl-acetamide] | < 0.2 µM |
